What was measured:
[1] = tested on: solid-tumor patients; details: phase 1 studies; cited from earlier work
[2] = Plasma pharmacokinetics of lenvatinib; details: human, in vivo
Description: Tmax, Cmax, Ctrough, AUC0-t, CL (total body clearance from plasma), Vss (volume of distribution at steady […]), and t1/2 were evaluated.
Baseline and demographic variables including age, gender, race, height, weight, and ECOG performance score were summarized using descriptive statistics. […] Pearson and Spearman correlation coefficients were calculated between pharmacokinetic parameters and serum biomarkers at different time points compared with baseline to examine the correlation between drug exposure and biomarkers. Univariate and multivariate Cox proportional hazards models and log-rank tests were used to examine the relationship between PFS and baseline (and change from baseline) concentrations in angiogenesis and apoptosis biomarkers. Cumulative chi-square test was used to examine the correlation between mutation/serum biomarkers and best overall response. Pearson and Spearman correlation coefficients were also calculated between percent MTS (defined as percent change in sum of longest diameter from baseline to nadir using RECIST criteria) and serum biomarkers at different time points compared with baseline.

[3] = tested on: metastatic melanoma; details: 38 or 120 patients, phase 3 trial, metastatic melanoma progressed after ipilimumab; cited from earlier work

Compound | Maximum tolerated dose (MTD) [1] [mg/day] | AUC(0-t) ([2]; Geometric mean (%CV), DL1 lenvatinib 20 mg + TMZ 100 mg/m2, Cycle 1/Day 1, n = 6) [µg·h/mL] | AUC(0-t) ([2]; Geometric mean (%CV), DL1 lenvatinib 20 mg + TMZ 100 mg/m2, Cycle 2/Day 1, n = 4) [µg·h/mL] | AUC(0-t) ([2]; Mean (SD), DL3 lenvatinib 24 mg + TMZ 150 mg/m2, Cycle 1/Day 1, n = 22) [µg·h/mL] | AUC(0-t) ([2]; Mean (SD), DL3 lenvatinib 24 mg + TMZ 150 mg/m2, Cycle 2/Day 1, n = 18) [µg·h/mL] | Tmax ([2]; Median tmax, range across the cohorts) [h] | Objective response rate [3] [%]
COc1cc2nccc(Oc3ccc(NC(=O)NC4CC4)c(Cl)c3)c2cc1C(N)=O [Lenvatinib] | 25 | 3.12 | 4.12 | 3.94 | 4.74 | 1 to 8 | –
nivolumab: anti-PD1 receptor immune checkpoint inhibitor monoclonal antibody | – | – | – | – | – | – | 31.7

Reference: article PMC4767496 (Oncotarget, 2015)
